Results reported in patent US20040248232A1, “Method for treating Alzheimer's dementia” (priority 2003, published 2004).
Entries after “also recorded” stand apart in the source; their conditions may differ. Non-standard residues stand in square brackets, D forms with d. Residues, ends and D or L forms follow the SMILES beside them. *: point of attachment. Sta = CC(C)C[C@H](N)[C@@H](O)CC(=O)O; Isovaleryl = CC(C)CC(=O)*

What was measured:
[1] = test system: β-secretase endoprotease activity in chromaffin vesicle lysate; experiment: Effect of reducing agents on β-secretase endoprotease activity in chromaffin vesicles; format: biochemical, bovine; conditions: 1 mM; lysed vesicles, Z*Val-Lys-Met-MCA
Experimental: (§1) The β-secretase endoprotease activity was identified by incubating the chromaffin vesicle lysate (2-10 μl of 10-20 mg protein/ml) with the Z★Val-Lys-Met-MCA substrate (100 μM final concentration) and detecting AMC fluorescence. The chromaffin vesicle lysate was prepared as described in Example I. The endoprotease activity was determined as a function of pH by varying the pH of the incubation solution between 3.0 to 8.0 in 0.5 pH increments. Citric acid, sodium phosphate, and Tris-HCl buffers (100 mM final concentration) were used to adjust the pH of the incubation solutions between 3.0 to 5.5, 6.0 to 7.5, and 8.0, respectively. Duplicate samples at each pH increment (100 μl each) were distributed among 22 wells in a covered microtiter well plate and incubated at 37° C. for 8 hours in a water bath.
(§2) The effect of the reducing agent dithiothreitol (DTT) on β-secretase endoprotease activity was determined using the assay described in Example III. Briefly, the lysed vesicles were incubated with the substrate Z★Val-Lys-Met-MCA in the presence or absence of 1 mM DTT and the resulting fluorescence plotted as a function of pH. Both with and without DTT, β-secretase endoprotease activity was detected and in both cases that activity had pH optimum of about 4.0 to 6.0, which is consistent with the intravesicular pH of chromaffin vesicles.

[2] = target: T1, Peak I β-secretase endoprotease activity (cathepsin L) (Bos taurus, UniProt P25975); experiment: Protease inhibitors of β-secretase endoprotease activity in Peak I; format: biochemical, bovine; conditions: for Peak I (%): % of control (no inhibitor); for inhibition of Peak I activity, in words: text summary of Table IV; for β-secretase activity of Peak I: inhibitor at 1 μM (Example XVI)
T1 construct: from tissue; host or cells: bovine adrenal medulla chromaffin vesicles; Con A then Sephacryl S200, Peak I
T1 sequence (P25975 118-334): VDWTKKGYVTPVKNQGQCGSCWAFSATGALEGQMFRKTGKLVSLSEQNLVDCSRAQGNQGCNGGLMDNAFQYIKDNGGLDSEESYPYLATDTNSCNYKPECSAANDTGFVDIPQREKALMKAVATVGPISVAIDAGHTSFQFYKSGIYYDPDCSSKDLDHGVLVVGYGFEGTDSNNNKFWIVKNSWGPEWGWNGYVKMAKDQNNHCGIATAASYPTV
Experimental: The effect of the aminopeptidase M and the basic pH buffer used in the β-secretase endoprotease activity assay was determined. […] Three assays were conducted, one with aminopeptidase M in its basic pH buffer, another with the basic pH buffer but not aminopeptidase M, and a third without either the buffer or the aminopeptidase M. Briefly, the chromaffin vesicle lysate and the substrate Z★Val-Lys-Met-MCA were incubated for 30 minutes-at a specified pH and the resulting fluorescence measured. The aminopeptidase M in the basic pH buffer or:.that buffer alone (final concentration of 75 mM Tris-HCl pH 8.2) was added to the assay and incubated an additional 60 minutes at 37° C.
The protease inhibitor was added to each assay at the start of the reaction at the appropriate concentration. The extent of inhibition was expressed as a percentage of the activity without the inhibitor (control).

[3] = target: T2, Peak II β-secretase endoprotease activity (cathepsin B) (Bos taurus, UniProt P07688); experiment: Protease inhibitors of β-secretase endoprotease activity in Peak II; format: biochemical, bovine; conditions: for Peak II (%): % of control (no inhibitor); for inhibition of Peak II activity, in words: text summary of Table IV
T2 construct: from tissue; host or cells: bovine adrenal medulla chromaffin vesicles; Con A, Sephacryl S200 (Peak II), Mono Q (II-A, II-B)

[4] = test system: 27 kDa and 31 kDa cysteine protease bands of Peak I; experiment: 125I-DCG-04 affinity labeling of Peak I; format: binding, bovine; conditions: inhibitor 1 μM
Experimental: An aliquot of Peak I was incubated at room temperature with 125I-DCG-04 for 30 minutes, and the affinity labeled β-secretase was then subjected to one-dimensional SDS-PAGE followed by electrophoretic transfer of proteins to nitrocellulose membranes, and 125I-DCG-04 labeled proteins were detected with streptavidin-HRP, as described previously (Greenbaum et al. Chem. Biol. 7:569-81, 2000, Greenbaum et al., Chemistry and Biology 10, 1085-1094, 2002; Greenbaum et al., Mol. Cell. Proteomics, 1:60-68, 2002).
The 31 kDa band resembles the molecular weight of the cysteine protease cathepsin B (Barrett et al., “Handbook of Proteolytic Enzymes,” Pub. Academic Press, SanDiego, pp 609-617, 1998; and Greenbaum et al., Mol. Cell. Proteomics, 1:60-68, 2002). The selective cathepsin B inhibitor, CA-074, was used to determine whether the 27 kDa or 31 kDa bands were responsible for the β-secretase activity of Peak I (Yamamoto et al., J. Mol. Biol. 227:942-944, 1992; Gour-Salin et al., J. Med. Chem. 36:720-725, 1993; Bogyo et al., Chem Biol. 1:27-38, 2000).

[5] = test system: β-secretase endoprotease activity in chromaffin vesicle lysate; experiment: Protease inhibitors of β-secretase endoprotease activity in chromaffin vesicle lysate (Z*Val-Lys-Met-MCA cleavage, AMC fluorescence); format: biochemical, bovine; conditions: for % CONTROL: pH 5.5, with aminopeptidase M, activity as % of activity without inhibitor; for inhibition of β-secretase endoprotease activity in chromaffin vesicle lysate, in words: text summary of Table II
Experimental: as §1
As discussed above, endoprotease cleavage between the Met-MCA bond in the Z★Val-Lys-Met-MCA substrate produces fluorescent AMC, but endoprotease cleavage between the Lys-Met or Val-Lys bonds in that substrate produces non-fluorescent Lys-Met-MCA and Met-MCA peptides. To insure that the latter two endoprotease cleavages were detected, aminopeptidase M (20 μg/ml final concentration, BOEHRINGER […]) was added to each incubation solutions to produce fluorescent AMC from the Lys-Met-MCA and Met-MCA peptides. Prior to adding the aminopeptidase M, each incubation solution was adjusted to a pH 8.3 using Tris-HCl because aminopeptidase M functions at a basic pH. A second incubation at 37° C. for 1 hour in the water bath was conducted to complete the aminopeptidase M reaction.
Upon termination of that second incubation, AMC fluorescence was assayed using a fluorometer (IDEXX fluorometer, FCA Fluorescence Concentration Analyzer, cat. no. 10-105-2, BAXTER HEALTH CARE CORP., Mundelein, Ill.) at excitation and emission wavelengths of 365 and 450 nm, respectively. Standard AMC concentrations were also measured to quantitate relative fluorescence with the molar amount (pmol) of AMC generated by the secretase. The resulting AMC fluorescence reflects the endoprotease activity in cleaving either the Met-MCA, Lys-Met. and Val-Lys bonds in the Z★Val-Lys-Met-MCA substrate.
as §2
The effect of the aminopeptidase M and the basic pH buffer used in the β-secretase endoprotease activity assay was determined. The assay was conducted as described in Example VIII with DTT. Three assays were conducted, one with aminopeptidase M in its basic pH buffer, another with the basic pH buffer but not aminopeptidase M, and a third without either the buffer or the aminopeptidase M. Briefly, the chromaffin vesicle lysate and the substrate Z★Val-Lys-Met-MCA were incubated for 30 minutes-at a specified pH and the resulting fluorescence measured. The aminopeptidase M in the basic pH buffer or:.that buffer alone (final concentration of 75 mM Tris-HCl pH 8.2) was added to the assay and incubated an additional 60 minutes at 37° C. […] The assay conducted with aminopeptidase M and its basic pH buffer and that of the control assay having just the basic pH buffer produced approximately the same amount of fluorescence.
The effect of various protease inhibitors on β-secretase endoprotease activity in the lysate was determined at the pH optimum 5.5 in the assay described in Example IX containing aminopeptidase M. Protease inhibitors specific for various protease classes were used. […]

[6] = test system: cathepsin activity in brain; conditions: administered to animals; cited from earlier work
[7] = test system: primary chromaffin cell cultures; experiment: Aβ-peptide secretion by chromaffin cells (RIA of Aβ1-40 in media); format: cell-based; conditions: 50 mM, 15 minutes
Experimental: Primary chromaffin cell cultures containing approximately 2 million cells in each culture were produced using established methods (Hook et al., ibid.; and Tezapsidis et al., ibid.). Exocytosis of the contents of the vesicles in such cells was induced by exposing the cells to KCl (50 mM) or nicotine (10 μM) for 15 minutes.

SMILES: O[C@H](CS)[C@H](O)CS (racemic) [DTT, dithiothreitol]
- increase in the β-secretase endoprotease activity [1]: approximately 5 fold

SMILES: c1cnc2c(c1)ccc1cccnc12 [1,10 Phenanthroline]
- Peak I (%) ([2]; inhibitor 500 μM): 31%
- inhibition of Peak I activity, in words [2]: significantly inhibited
- Peak II (%) ([3]; inhibitor 500 μM): 72%
- inhibition of Peak II activity, in words [3]: only slightly inhibited

SMILES: CCCNC(=O)[C@H]1O[C@@H]1C(=O)N[C@H](C(=O)N1CCC[C@H]1C(=O)O)[C@@H](C)CC [CA-074]
- β-secretase activity of Peak I [2]: not affected
- 125I-DCG-04 labeling of Peak I bands in the presence of the inhibitor [4]: labeling of only the 27 kDa band

SMILES: CC(C)C[C@H](NC(=O)[C@@H](NC(=O)N[C@@H](Cc1ccccc1)C(=O)O)[C@@H]1CCN=C(N)N1)C(=O)N[C@H](C=O)Cc1ccccc1 [Chymostatin]
- Peak I (%) ([2]; inhibitor 10 μM): 0%
- inhibition of Peak I activity, in words [2]: maximally inhibited
- % CONTROL ([5]; inhibitor 10 μM): 11%
- inhibition of β-secretase endoprotease activity in chromaffin vesicle lysate, in words [5]: greatly inhibited
- Peak II (%) ([3]; inhibitor 10 μM): 35%
- inhibition of Peak II activity, in words [3]: maximally inhibited

SMILES: CC(C)CCNC(=O)[C@H](CC(C)C)NC(=O)[C@H]1O[C@@H]1C(=O)O [E64c]
- Peak I (%) ([2]; inhibitor 10 μM): 0%
- β-secretase activity of Peak I [2]: completed inhibited
- inhibition of Peak I activity, in words [2]: maximally inhibited; also recorded: completely inhibited
- % CONTROL ([5]; inhibitor 10 μM): 0%
- inhibition of β-secretase endoprotease activity in chromaffin vesicle lysate, in words [5]: completely inhibited
- cathepsin activity in brain [6]: effectively block
- Peak II (%) ([3]; inhibitor 10 μM): 0%
- inhibition of Peak II activity, in words [3]: maximally inhibited; also recorded: completely inhibited

SMILES: O=C(O)CN(CCN(CC(=O)O)CC(=O)O)CC(=O)O [EDTA, ethylenediaminetetraacetic acid]
- Peak I (%) ([2]; inhibitor 1 mM): 99%
- % CONTROL ([5]; inhibitor 1 mM): 100%
- Peak II (%) ([3]; inhibitor 1 mM): 138%

SMILES: O=C(O)CN(CCOCCOCCN(CC(=O)O)CC(=O)O)CC(=O)O [EGTA]
- Peak I (%) ([2]; inhibitor 1 mM): 108%
- % CONTROL ([5]; inhibitor 1 mM): 99%
- Peak II (%) ([3]; inhibitor 1 mM): 142%

SMILES: [Cl-].[K+] [KCl, potassium chloride]
- increase in the concentration of Aβ1-40 peptide in the media relative to control media [7]: approximately 350 fold

SMILES: CC(=O)N[C@@H](CC(C)C)C(=O)N[C@@H](CC(C)C)C(=O)N[C@H](C=O)CCCNC(=N)N [Leupeptin]
- Peak I (%) ([2]; inhibitor 100 μM): 0%
- inhibition of Peak I activity, in words [2]: maximally inhibited; also recorded: completely inhibited
- % CONTROL ([5]; inhibitor 100 μM): 0%
- inhibition of β-secretase endoprotease activity in chromaffin vesicle lysate, in words [5]: completely inhibited
- Peak II (%) ([3]; inhibitor 100 μM): 0%
- inhibition of Peak II activity, in words [3]: maximally inhibited; also recorded: completely inhibited

SMILES: O=S(=O)(F)Cc1ccccc1 [PMSF, phenylmethylsulfonyl fluoride]
- inhibition of Peak I activity, in words [2]: did not significantly inhibit; also recorded: only slightly inhibited
- % CONTROL ([5]; inhibitor 100 μM): 58%
- inhibition of β-secretase endoprotease activity in chromaffin vesicle lysate, in words [5]: significantly inhibited
- inhibition of Peak II activity, in words [3]: did not significantly inhibit; also recorded: only slightly inhibited

SMILES: CC(C)CC(=O)N[C@H](C(=O)N[C@H](C(=O)N[C@@H](CC(C)C)[C@@H](O)CC(=O)N[C@@H](C)C(=O)N[C@@H](CC(C)C)[C@@H](O)CC(=O)O)C(C)C)C(C)C [Pepstatin A] (Isovaleryl-VV[Sta]A[Sta]-OH)
- Peak I (%) ([2]; inhibitor 100 μM): 85%
- inhibition of Peak I activity, in words [2]: did not significantly inhibit; also recorded: slightly inhibited
- % CONTROL ([5]; inhibitor 10 μM): 78%
- inhibition of β-secretase endoprotease activity in chromaffin vesicle lysate, in words [5]: slightly inhibited
- Peak II (%) ([3]; inhibitor 100 μM): 132%
- inhibition of Peak II activity, in words [3]: did not significantly inhibit; also recorded: increased the activity

SMILES: O=C(O)c1cc[c]([Hg][OH])cc1 [pHMB]
- Peak I (%) ([2]; inhibitor 1 mM): 67%
- inhibition of Peak I activity, in words [2]: slightly inhibited; also recorded: inhibited
- % CONTROL ([5]; inhibitor 1 mM): 35%
- inhibition of β-secretase endoprotease activity in chromaffin vesicle lysate, in words [5]: inhibited
- inhibition of β-secretase endoprotease activity in chromaffin vesicle lysate, in words ([5]; listed as PHMB): greatly inhibited
- Peak II (%) ([3]; inhibitor 1 mM): 68%
- inhibition of Peak II activity, in words [3]: slightly inhibited; also recorded: inhibited
